{
  "source": "patent US20240336608A1",
  "about": "“IL4I1 INHIBITORS AND METHODS OF USE” (Merck Sharp & Dohme LLC, priority 2023, published 2024)",
  "data": [
    {"target": "T1, recombinant IL4I1 (Homo sapiens, UniProt Q96RQ9)", "T1 construct": "purchased R&D Systems 5684-AO-020", "T1 sequence (Q96RQ9 22-567)": "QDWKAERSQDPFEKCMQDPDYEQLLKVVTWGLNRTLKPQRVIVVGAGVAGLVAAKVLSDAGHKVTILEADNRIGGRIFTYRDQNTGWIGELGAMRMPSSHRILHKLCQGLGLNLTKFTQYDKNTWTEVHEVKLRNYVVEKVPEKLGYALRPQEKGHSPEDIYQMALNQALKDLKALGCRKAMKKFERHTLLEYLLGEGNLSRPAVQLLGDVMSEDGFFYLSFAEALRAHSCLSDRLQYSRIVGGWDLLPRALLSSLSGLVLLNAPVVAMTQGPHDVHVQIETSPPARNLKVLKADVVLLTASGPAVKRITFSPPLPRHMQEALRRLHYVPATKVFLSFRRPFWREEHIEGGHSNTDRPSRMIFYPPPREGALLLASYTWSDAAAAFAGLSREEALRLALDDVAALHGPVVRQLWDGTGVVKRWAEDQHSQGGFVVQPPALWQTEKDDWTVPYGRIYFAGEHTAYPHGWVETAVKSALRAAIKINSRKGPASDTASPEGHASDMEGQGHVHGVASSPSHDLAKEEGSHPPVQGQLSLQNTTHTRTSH", "assay": "IL4I1 Enzymatic Assay (Amplex Red/HRP coupled detection of H2O2, fluorescence)", "type": "biochemical", "settings": "1 nM recombinant IL4I1; four-hour pre-incubation with compound; 1 mM each Phe, Tyr, Trp; ten-point titration", "summary_of_the_method": "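H2O2 output was coupled to resorufin fluorescence (ex 544/em 590) via 0.05 mM Amplex Red and 1 U/mL HRP. Substrate: Phe, Tyr, Trp at 1 mM each; enzyme 1 nM, 4 h compound pre-incubation, 120 min reaction, pH 7.0 Hepes. EC50 by nonlinear four-parameter regression, 1:3 ten-point titration.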", "units": {"EC50": "µM"}, "values": [
      {"smiles": "NC(=O)Cn1cc(C(=O)NCc2nnc(-c3ccccc3)s2)nn1", "note": "[Example 70, 1-(2-amino-2-oxoethyl)-N-((5-phenyl-1,3,4-thiadiazol-2-yl)methyl)-1H-1,2,3-triazole-4-carboxamide]", "EC50": 0.005},
      {"smiles": "Cc1ccc(-c2cc(C(=O)NCc3nnc(-c4ccccc4)s3)on2)c(C)n1", "note": "[Example 283, 3-(2,6-dimethylpyridin-3-yl)-N-((5-phenyl-1,3,4-thiadiazol-2-yl)methyl)isoxazole-5-carboxamide]", "EC50": 0.165},
      {"smiles": "Cn1cc(C(=O)NCc2nnc(N3CCCCC3)s2)nn1", "note": "[Example 294, 1-methyl-N-((5-(piperidin-1-yl)-1,3,4-thiadiazol-2-yl)methyl)-1H-1,2,3-triazole-4-carboxamide]", "EC50": 0.251},
      {"smiles": "C[C@@H](CO)n1cc(C(=O)NCc2nnc(-c3ccccc3)s2)nn1", "note": "[Example 166, (S)-1-(1-hydroxypropan-2-yl)-N-((5-phenyl-1,3,4-thiadiazol-2-yl)methyl)-1H-1,2,3-triazole-4-carboxamide]", "EC50": 0.009},
      {"smiles": "O=C(NCc1nnc(-c2ccccc2)s1)c1cn(CC2(CO)COC2)nn1", "note": "[Example 185, 1-((3-(hydroxymethyl)oxetan-3-yl)methyl)-N-((5-phenyl-1,3,4-thiadiazol-2-yl)methyl)-1H-1,2,3-triazole-4-carboxamide]", "EC50": 0.025},
      {"smiles": "O=C(NCc1nnc(-c2ccccc2)s1)c1cn([C@@H]2C[C@@H](O)[C@@H](O)C2)nn1", "note": "[Example 190, 1-((1s,3R,4S)-3,4-dihydroxycyclopentyl)-N-((5-phenyl-1,3,4-thiadiazol-2-yl)methyl)-1H-1,2,3-triazole-4-carboxamide]", "EC50": 0.499},
      {"smiles": "O=C(NCc1nnc(-c2ccccc2)s1)c1cn(C2(C(F)F)CC2)nn1", "note": "[Example 152, 1-(1-(difluoromethyl)cyclopropyl)-N-((5-phenyl-1,3,4-thiadiazol-2-yl)methyl)-1H-1,2,3-triazole-4-carboxamide]", "EC50": 0.167},
      {"smiles": "C[C@H](CO)Cn1cc(C(=O)NCc2nnc(-c3ccccc3)s2)nn1", "note": "[Example 76, (S)-1-(3-hydroxy-2-methylpropyl)-N-((5-phenyl-1,3,4-thiadiazol-2-yl)methyl)-1H-1,2,3-triazole-4-carboxamide]", "EC50": 0.004},
      {"smiles": "O=C(NCc1nnc(-c2ccccc2)s1)c1cn(CC2(CO)CC2)nn1", "note": "[Example 343, 1-((1-(hydroxymethyl)cyclopropyl)methyl)-N-((5-phenyl-1,3,4-thiadiazol-2-yl)methyl)-1H-1,2,3-triazole-4-carboxamide]", "EC50": 0.092},
      {"smiles": "O=C(NCc1nnc(-c2ccccc2)s1)c1cn(C2CCC(O)C2)nn1", "note": "(stereo not shown) [Example 196, 1-(3-hydroxycyclopentyl)-N-((5-phenyl-1,3,4-thiadiazol-2-yl)methyl)-1H-1,2,3-triazole-4-carboxamide]", "EC50": 0.011}
    ]}
  ]
}
